Broadly, the IC50 is the midpoint of a concentration-inhibition curve.

Data set [1] deals with T1, JAK3 enzyme (Homo sapiens (Human), UniProt P52333). The experiment in a line: JAK Caliper enzyme assay at 4 μM ATP. The data set is classed as biochemical. As to the method:
(§1) JAK Caliper Enzyme Assay at 4 μM or 1 mM ATP
(§2) Test article was solubilized in dimethyl sulfoxide (DMSO) to a stock concentration of 30 mM. An 11-point half log dilution series was created in DMSO with a top concentration of 600 μM. […] The compound plates were diluted 1 to 60 resulting in a top final assay compound concentration of 10 μM and a 2% DMSO concentration.
(§3) Test article and assay controls were added to a 384-well plate. Reaction mixtures contained 20 mM HEPES, pH 7.4, 10 mM magnesium chloride, 0.01% bovine serum albumin (BSA), 0.0005% Tween 20, 4 μM or 1 mM ATP and 1 μM peptide substrate. […] The assays were initiated by the addition 1 nM JAK3 enzyme and were incubated at room temperature 75 minutes for JAK3. Enzyme concentrations and incubation times were optimized for each new enzyme preps and were modified slightly over time to ensure 20%-30% phosphorylation. The assays were stopped with a final concentration of 10 mM EDTA, 0.1% Coating Reagent and 100 mM HEPES, pH=7.4. The assay plates were placed on a Caliper Life Science Lab Chip 3000 (LC3000) instrument, and each well was sampled using appropriate separation conditions to measure the unphosphorylated and phosphorylated peptide.

Data set [2] has as its target T1, JAK3 enzyme. The experiment in a line: JAK Caliper enzyme assay at 1 mM ATP. The data set is classed as biochemical. As to the method: as §1, §2, §3
Data set [3] can be described thus: Stability of JAK3 covalent inhibitors in human whole blood.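 Further: parent compound remaining over incubation time quantified by LC-MS/MS as peak area ratio against an internal standard, using pooled K2-EDTA blood.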 The note with it: both sexes, 37° C., read-out: Human blood stability t1/2. The data set is classed as in vitro ADME.
Description: Stability of JAK3 Covalent Inhibitors in Rat and Human Whole Blood
Rat blood was collected from 3 male Sprague-Dawley rats (200-250 g, Charles River Laboratories) and pooled for each study. Human blood was collected from one male and one female healthy subjects at the Occupational Health & Wellness Center at Pfizer, Groton, CT and pooled for each study. Both rat and human blood was collected freshly into K2-EDTA tubes and kept on ice. An aliquot of the blood was transferred to microtubes and pre-warmed for 10 min at 37° C. using a heat block. […] An aliquot of the incubation mixture was removed at designated time points during the course of the incubation, mixed with an aliquot of acetonitrile containing an internal standard, vortexed and centrifuged. The resulting supernatants were removed and subjected to LC-MS/MS analyses to determine parent compound concentrations. Peak area ratios of the parent compound vs the internal standard were used to determine the % of parent compound remaining vs incubation time.
For data set [4], the system named is IL-15 induced STAT5 phosphorylation in human whole blood lymphocytes. The experiment in a line: HWB IL-15 induced STAT5 phosphorylation assay. The format is cell-based. The conditions noted are these: Lymphocyte, IL-15 stimulated, read-out: HWB-IL15-pSTAT5 IC50. As to the method: HWB IL-15 Induced STAT5 Phosphorylation Assay
After mixing and incubating for 45 minutes at 37° C., 5 μl D-PBS (unstimulated control) or 20× stocks of 5 μl human IL-15 (final concentration is 50 ng/ml) were added, and mixed three times. After incubating 15 minutes at 37° C., 1× Lyse/Fix Buffer (BD Phosflow 5× Lyse/Fix Buffer) was added to all wells at 1000 μl/well, then incubated for 20 minutes at 37° C. and spun 5 mins at 1200 rpm. […] Following incubating at 4° C. over night, all the samples were transferred to 96-well polypropylene U-bottom plate, and checked by flow cytometry gated on total lymphocytes.

Data set [5] relates to IL-15 induced P-STAT5 in human PBMC. In words: PBMC IL-15 induced P-STAT5. The note with it: IL-15 stimulated, read-out: PBMC IL15-STAT5 IC50. The data set is classed as cell-based. As to the method:
PBMC IL-15 Induced P-STAT5
Frozen human PBMC (200-250 million cells/vial) was thawed at 37° C. The cells were transferred to 10 mL warm medium in a 50-mL conical tube, and centrifuged at 1,200 RPM at room temperature for 5 min. The supernatant was aspirated. […] After adding 47 ml D-PBS (37° C.) to PBMC/FBS suspension, centrifuging at 1,200 RPM at room temperature for 5 min, and aspirating the supernatant, the cells were resuspended in 20 mL warm RPMI medium. Ninety μL of cell suspension were pipetted per well in a 96-well, deep-well, V-bottom plate, and the plate was incubated at 37° C. for 30 min. […] After adding 0.8 mL staining buffer per well, the plates were centrifuged at 1,200 RPM (Beckman GS-6R or Sorvall Legend) at room temperature for 5 min, and again the supernatant was aspirated using a 8-channel or 12-channel manifold. The plate was vortexed, and 0.35 mL 90% methanol/10% H2O (−20° C.) was added per well, and the plate incubated on ice for 20 min. After again adding 0.8 mL staining buffer per well, the plates were centrifuged at 1,200 RPM (Beckman GS-6R or Sorvall Legend) at room temperature for 5 min, and again the supernatant was aspirated using a 8-channel or 12-channel manifold, and then 0.8 mL Staining buffer was added per well. […] Samples were analyzed using a BD Calibur™ or BD FACSCanto™ flow cytometer equipped with the BD High Throughput Sampler.

Structures are written as SMILES. Read-outs that look alike come from different tables or passages of the source.

T1 sequence (P52333 whole entry, species assumed): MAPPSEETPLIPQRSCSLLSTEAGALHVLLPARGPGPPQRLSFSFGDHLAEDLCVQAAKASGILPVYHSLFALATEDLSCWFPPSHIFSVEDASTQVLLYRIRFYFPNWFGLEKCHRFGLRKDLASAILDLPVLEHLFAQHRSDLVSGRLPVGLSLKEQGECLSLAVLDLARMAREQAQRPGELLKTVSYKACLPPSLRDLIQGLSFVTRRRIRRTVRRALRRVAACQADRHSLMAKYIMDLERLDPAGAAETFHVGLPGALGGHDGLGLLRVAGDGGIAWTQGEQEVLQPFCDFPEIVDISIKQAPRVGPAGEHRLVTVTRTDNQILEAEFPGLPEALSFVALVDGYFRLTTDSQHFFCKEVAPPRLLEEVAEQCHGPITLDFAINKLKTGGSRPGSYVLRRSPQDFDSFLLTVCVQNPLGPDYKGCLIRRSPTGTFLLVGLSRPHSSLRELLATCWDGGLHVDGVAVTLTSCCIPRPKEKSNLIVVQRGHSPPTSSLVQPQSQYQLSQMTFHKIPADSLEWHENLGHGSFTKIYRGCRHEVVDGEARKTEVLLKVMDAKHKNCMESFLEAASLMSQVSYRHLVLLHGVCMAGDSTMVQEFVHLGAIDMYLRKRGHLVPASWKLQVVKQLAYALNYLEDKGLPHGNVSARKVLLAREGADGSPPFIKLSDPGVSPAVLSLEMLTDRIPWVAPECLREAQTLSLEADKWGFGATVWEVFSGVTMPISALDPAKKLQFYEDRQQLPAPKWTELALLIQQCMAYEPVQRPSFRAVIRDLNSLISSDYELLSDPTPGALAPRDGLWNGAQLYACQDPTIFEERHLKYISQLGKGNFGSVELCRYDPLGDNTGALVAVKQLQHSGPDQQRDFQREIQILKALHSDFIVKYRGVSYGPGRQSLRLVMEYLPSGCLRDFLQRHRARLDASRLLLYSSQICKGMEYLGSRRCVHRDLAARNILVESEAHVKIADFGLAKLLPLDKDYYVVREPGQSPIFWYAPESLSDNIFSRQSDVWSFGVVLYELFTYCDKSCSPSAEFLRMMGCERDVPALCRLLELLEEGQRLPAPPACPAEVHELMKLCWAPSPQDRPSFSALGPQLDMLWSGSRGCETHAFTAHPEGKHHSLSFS

On to `C/C=C/C(=O)N1CC[C@@H]2CCN(c3ncnc4[nH]ccc34)[C@@H]2C1` [Example 84, (2E)-1-[(3aS,7aS)-1-(7H-pyrrolo[2,3-d]pyrimidin-4-yl)octahydro-6H-pyrrolo[2,3-c]pyridin-6-yl]but-2-en-1-one], for which the IC50 on JAK3 enzyme [1] (read-out: JAK3 (4 μM ATP) IC50) was 727 nM; on JAK3 enzyme [2] (read-out: JAK3 (1 mM ATP) IC50) it was more than 10000 nM.
For `C=CC(=O)N1CC[C@H](O)[C@@H](Nc2ncnc3[nH]ccc23)C1` (racemic) [Example 113, rac-1-[(3S,4S)-4-Hydroxy-3-(7H-pyrrolo[2,3-d]pyrimidin-4-ylamino)piperidin-1-yl]prop-2-en-1-one], the half-inhibitory concentration (IC50) on JAK3 enzyme [1] was determined as 42.4 nM; on JAK3 enzyme [2], 8480 nM.
`C=CC(=O)N1CCC[C@H](Nc2ncnc3[nH]ccc23)[C@H]1C` (racemic) [Example 121, rac-1-((2R,3S)-3-((7H-Pyrrolo[2,3-d]pyrimidin-4-yl)amino)-2-methylpiperidin-1-yl)prop-2-en-1-one]: the IC50 is 648 nM against JAK3 enzyme [1] and more than 10000 nM against JAK3 enzyme [2]. Further, the half-life at 1 μM in data set [3] (whole blood) is more than 6 h.
As for `C=CC(=O)c1c[nH]c2ncnc(N[C@H]3CN(C(=O)C=C)CC[C@H]3F)c12` [Example 120, 1-(4-{[(3S,4R)-1-Acryloyl-4-fluoropiperidin-3-yl]amino}-7H-pyrrolo[2,3-d]pyrimidin-5-yl)prop-2-en-1-one], at JAK3 enzyme [2] (read-out: JAK3 (1 mM ATP) IC50), the IC50 is more than 10000 nM.
For `C=CC(=O)N1C[C@H](Nc2ncnc3[nH]ccc23)[C@H]2CC[C@@H]1C2` [Example 127, 1-((1R,4R,5S)-4-(7H-pyrrolo[2,3-d]pyrimidin-4-ylamino)-2-azabicyclo[3.2.1]octan-2-yl)prop-2-en-1-one], the figures for the IC50 at JAK3 enzyme [1] (read-out: JAK3 (4 μM ATP) IC50) and on JAK3 enzyme [2] (read-out: JAK3 (1 mM ATP) IC50) were 190 nM and more than 10000 nM, respectively.
For the compound `C=CC(=O)N1C[C@@H]2C[C@H]1CN2c1cnc2[nH]cc(C(=O)NC(C)C)c2n1` [Example 300, 2-[(1S,4S)-5-acryloyl-2,5-diazabicyclo[2.2.1]hept-2-yl]-N-(propan-2-yl)-5H-pyrrolo[2,3-b]pyrazine-7-carboxamide], the half-inhibitory concentration (IC50) on JAK3 enzyme [1] was found to be 0.9 nM; on JAK3 enzyme [2] it was 84.4 nM. The half-life at 1 μM in data set [3] (whole blood (fresh, pooled, K2-EDTA)) is 1.95 h.
With `C=CC(=O)N1CCC(Nc2cnc3[nH]cc(C(=O)N[C@@H]4C[C@H]4C(F)(F)F)c3n2)CC1` [Example 233, 2-[(1-acryloylpiperidin-4-yl)amino]-N-[(1R,2R)-2-(trifluoromethyl)cyclopropyl]-5H-pyrrolo[2,3-b]pyrazine-7-carboxamide], the IC50 at JAK3 enzyme [1] (read-out: JAK3 (4 μM ATP) IC50) is 0.2 nM; at JAK3 enzyme [2] (read-out: JAK3 (1 mM ATP) IC50), 20.6 nM.
`C=CC(=O)N1C[C@H](Nc2ncnc3[nH]ccc23)CC[C@H]1CC` [Example 124, 1-[(2R,5R)-2-Ethyl-5-(7H-pyrrolo[2,3-d]pyrimidin-4-ylamino)piperidin-1-yl]prop-2-en-1-one]: the half-maximal inhibitory concentration (IC50) is 265 nM on JAK3 enzyme [1] (read-out: JAK3 (4 μM ATP) IC50) and more than 10000 nM on JAK3 enzyme [2] (read-out: JAK3 (1 mM ATP) IC50).
For the compound `C=CC(=O)N1C[C@H](Nc2ncnc3[nH]ccc23)[C@H]2CC[C@@H]1C2` (racemic) [Example 116, Rac-1-((1R,4R,5S)-4-(7H-pyrrolo[2,3-d]pyrimidin-4-ylamino)-2-azabicyclo[3.2.1]octan-2-yl)prop-2-en-1-one], the IC50 at JAK3 enzyme [1] is 418 nM; on JAK3 enzyme [2] it was more than 10000 nM; in data set [4], more than 10000 nM; in data set [5], more than 10000 nM.
Consider `O=C(C1=CCC1)N1CC[C@@H]2CCN(c3ncnc4[nH]ccc34)[C@@H]2C1` [Example 86, cyclobut-1-en-1-yl[(3aS,7aS)-1-(7H-pyrrolo[2,3-d]pyrimidin-4-yl)octahydro-6H-pyrrolo[2,3-c]pyridin-6-yl]methanone], for which the IC50 on JAK3 enzyme [1] (read-out: JAK3 (4 μM ATP) IC50) was 149 nM; at JAK3 enzyme [2] (read-out: JAK3 (1 mM ATP) IC50) it was more than 10000 nM. For the same compound, the half-life at 1 μM in data set [3] (whole blood) is more than 6 h.
On JAK3 enzyme [1], `C/C=C/C(=O)N1CC[C@@H](O)[C@@H](Nc2ncnc3[nH]ccc23)C1` (racemic) [Example 160, rac-(2E)-1-[(3S,4R)-4-Hydroxy-3-(7H-pyrrolo[2,3-d]pyrimidin-4-ylamino)piperidin-1-yl]but-2-en-1-one] returned an IC50 of more than 10000 nM.
Regarding `C=CC(=O)N1C[C@@H](Nc2ncnc3[nH]ccc23)[C@@H]2CC[C@H]1C2` [Example 126, 1-((1S,4S,5R)-4-(7H-pyrrolo[2,3-d]pyrimidin-4-ylamino)-2-azabicyclo[3.2.1]octan-2-yl)prop-2-en-1-one], the IC50 was 602 nM at JAK3 enzyme [1] (read-out: JAK3 (4 μM ATP) IC50) and more than 10000 nM against JAK3 enzyme [2].
As for `C=CC(=O)N1CC[C@@H](Nc2cnc3[nH]ccc3n2)C1` [Example 335, (R)-1-(3-((5H-Pyrrolo[2,3-b]pyrazin-2-yl)amino)pyrrolidin-1-yl)prop-2-en-1-one], at JAK3 enzyme [2] (read-out: JAK3 (1 mM ATP) IC50), the IC50 is more than 10000 nM.
For `C=CC(=O)N1CCN(c2cnc3[nH]cc(C(=O)NC(C)C)c3n2)C[C@@H]1CC(C)C` [Example 303, 2-[(3S)-4-acryloyl-3-(2-methylpropyl)piperazin-1-yl]-N-(propan-2-yl)-5H -pyrrolo[2,3-b]pyrazine-7-carboxamide], the half-life at 1 μM in data set [3] (whole blood) came to 5.68 h.
On the same count and under the same terms, in the case of `C=CC(=O)N1CCC(Oc2cnc3[nH]cc(C(=O)NC(C)C)c3n2)CC1` [Example 339, 2-((1-Acryloylpiperidin-4-yl)oxy)-N-isopropyl-5H-pyrrolo[2,3-b]pyrazine-7-carboxamide] it was 3.78 h.

Values taken from patent US9617258B2, “Pyrrolo[2,3-d]pyrimidinyl, pyrrolo[2,3-b]pyrazinyl and pyrrolo[2,3-d]pyridinyl acrylamides” (Pfizer Inc., priority 2013, dated 2017).
